{"source": "patent US20250281462A1", "about": "“THERAPEUTICALLY EFFECTIVE ORAL ADMINISTRATION OF A 2 ARYLBENZIMIDAZOLE” (Tranquis Therapeutics, Inc., priority 2021, published 2025)", "experiment": "Phase 1 multiple dose trial, plasma pharmacokinetics (Part 2)", "details": "for Tmax: median", "key": {"[1]": {"details": "human plasma, Regimen I: 120 mg TQS-168 SDD QD 7 days, fasted, geometric mean"}, "[2]": {"details": "human plasma, Regimen J 90 mg SDD fed, Day 1"}, "[3]": {"details": "human plasma, Regimen J 90 mg SDD fed, Day 7"}, "[4]": {"details": "human plasma, Regimen J: 90 mg TQS-168 SDD QD 7 days, fed, geometric mean"}, "[5]": {"details": "human plasma, Regimen K: 300 mg TQS-168 SDD QD 7 days, fed, geometric mean"}}, "data": [{"smiles": "CC(C)(C)c1ccc(-c2nc3ccccc3[nH]2)cc1", "note": "[TQS-168, 2-(4-tert-butylphenyl)-1H-benzimidazole]", "values": [{"measurement": "T1/2", "setting": "Regimen J, 90 mg TQS-168 SDD QD, fed, Day 7, geometric mean", "result": 4.46, "unit": "h"}, {"measurement": "T1/2", "setting": "Regimen K, 300 mg TQS-168 SDD QD, fed, Day 7, geometric mean", "result": 5.67, "unit": "h"}, {"measurement": "AUC(0-tau)", "setting": "human plasma, Regimen I: 120 mg TQS-168 SDD QD 7 days, fasted, Day 1, geometric mean", "result": 438, "unit": "ng·h/mL"}, {"measurement": "AUC(0-tau)", "setting": "human plasma, Regimen I: 120 mg TQS-168 SDD QD 7 days, fasted, Day 7, geometric mean", "result": 692, "unit": "ng·h/mL"}, {"measurement": "accumulation ratio based on AUC(0-tau)", "setting": "[1]", "result": 1.58}, {"measurement": "accumulation ratio based on Cmax", "setting": "[1]", "result": 1.59}, {"measurement": "maximum individual AUC(0-tau) as share of the AUC(0-24) exposure limit", "setting": "[2]", "result": 10.9, "unit": "%"}, {"measurement": "maximum individual Cmax as share of the Cmax exposure limit", "setting": "[2]", "result": 21.6, "unit": "%"}, {"measurement": "maximum individual AUC(0-tau) as share of the AUC(0-24) exposure limit", "setting": "[3]", "result": 19.5, "unit": "%"}, {"measurement": "maximum individual Cmax as share of the Cmax exposure limit", "setting": "[3]", "result": 30.9, "unit": "%"}, {"measurement": "AUC(0-tau)", "setting": "human plasma, Regimen J: 90 mg TQS-168 SDD QD 7 days, fed, Day 1, geometric mean", "result": 223, "unit": "ng·h/mL"}, {"measurement": "AUC(0-tau)", "setting": "human plasma, Regimen J: 90 mg TQS-168 SDD QD 7 days, fed, Day 7, geometric mean", "result": 227, "unit": "ng·h/mL"}, {"measurement": "accumulation ratio based on AUC(0-tau)", "setting": "[4]", "result": 1.24}, {"measurement": "accumulation ratio based on Cmax", "setting": "[4]", "result": 1.03}, {"measurement": "AUC(0-tau)", "setting": "human plasma, Regimen K: 300 mg TQS-168 SDD QD 7 days, fed, Day 1, geometric mean", "result": 1210, "unit": "ng·h/mL"}, {"measurement": "AUC(0-tau)", "setting": "human plasma, Regimen K: 300 mg TQS-168 SDD QD 7 days, fed, Day 7, geometric mean", "result": 2010, "unit": "ng·h/mL"}, {"measurement": "accumulation ratio based on AUC(0-tau)", "setting": "[5]", "result": 1.66}, {"measurement": "accumulation ratio based on Cmax", "setting": "[5]", "result": 1.74}, {"measurement": "AUC", "setting": "male, human, in vivo, 90 mg, AUC(0-tau), Regimen J, 90 mg TQS-168 SDD QD, fed, Day 1, tau = 24 h, geometric mean", "result": 223, "unit": "ng·h/mL"}, {"measurement": "AUC", "setting": "male, human, in vivo, 90 mg, AUC(0-tau), Regimen J, 90 mg TQS-168 SDD QD, fed, Day 7, tau = 24 h, geometric mean", "result": 227, "unit": "ng·h/mL"}, {"measurement": "AUC", "setting": "male, human, in vivo, 90 mg, AUC(0-tau), human plasma, Regimen J: 90 mg TQS-168 SDD QD 7 days, fed, Day 1, geometric mean", "result": 223, "unit": "ng·h/mL"}, {"measurement": "AUC", "setting": "male, human, in vivo, 90 mg, AUC(0-tau), human plasma, Regimen J: 90 mg TQS-168 SDD QD 7 days, fed, Day 7, geometric mean", "result": 227, "unit": "ng·h/mL"}, {"measurement": "Cmax", "setting": "male, human, in vivo, 90 mg, Cmax, Regimen J, 90 mg TQS-168 SDD QD, fed, Day 1, plasma, geometric mean", "result": 47.4, "unit": "ng/mL"}, {"measurement": "Cmax", "setting": "male, human, in vivo, 90 mg, Cmax, Regimen J, 90 mg TQS-168 SDD QD, fed, Day 7, plasma, geometric mean", "result": 48.8, "unit": "ng/mL"}, {"measurement": "Cmax", "setting": "male, human, in vivo, 90 mg, Cmax, human plasma, Regimen J: 90 mg TQS-168 SDD QD 7 days, fed, Day 1", "result": 190, "unit": "nM"}, {"measurement": "Cmax", "setting": "male, human, in vivo, 90 mg, Cmax, human plasma, Regimen J: 90 mg TQS-168 SDD QD 7 days, fed, Day 1, geometric mean", "result": 47.4, "unit": "ng/mL"}, {"measurement": "Cmax", "setting": "male, human, in vivo, 90 mg, Cmax, human plasma, Regimen J: 90 mg TQS-168 SDD QD 7 days, fed, Day 7", "result": 190, "unit": "nM"}, {"measurement": "Cmax", "setting": "male, human, in vivo, 90 mg, Cmax, human plasma, Regimen J: 90 mg TQS-168 SDD QD 7 days, fed, Day 7, geometric mean", "result": 48.8, "unit": "ng/mL"}, {"measurement": "Tmax", "setting": "male, human, in vivo, 90 mg, Tmax (median), Regimen J, 90 mg TQS-168 SDD QD, fed, Day 7, plasma", "result": 3, "unit": "h"}, {"measurement": "Tmax", "setting": "male, human, in vivo, 90 mg, Tmax, human plasma, Regimen J: 90 mg TQS-168 SDD QD 7 days, fed, Day 1", "result": 3, "unit": "h"}, {"measurement": "Tmax", "setting": "male, human, in vivo, 90 mg, Tmax, human plasma, Regimen J: 90 mg TQS-168 SDD QD 7 days, fed, Day 7", "result": 3, "unit": "h"}, {"measurement": "AUC", "setting": "male, human, in vivo, 90 mg, maximum individual AUC(0-tau), human plasma, Regimen J 90 mg SDD fed, Day 1", "result": 299, "unit": "ng·h/mL"}, {"measurement": "AUC", "setting": "male, human, in vivo, 90 mg, maximum individual AUC(0-tau), human plasma, Regimen J 90 mg SDD fed, Day 7", "result": 535, "unit": "ng·h/mL"}, {"measurement": "Cmax", "setting": "male, human, in vivo, 90 mg, maximum individual Cmax, human plasma, Regimen J 90 mg SDD fed, Day 1", "result": 65.8, "unit": "ng/mL"}, {"measurement": "Cmax", "setting": "male, human, in vivo, 90 mg, maximum individual Cmax, human plasma, Regimen J 90 mg SDD fed, Day 7", "result": 94.1, "unit": "ng/mL"}, {"measurement": "half-life", "setting": "male, human, in vivo, 120 mg", "result": 7.7, "unit": "h"}, {"measurement": "AUC", "setting": "male, human, in vivo, 120 mg, AUC(0-tau), human plasma, Regimen I: 120 mg TQS-168 SDD QD 7 days, fasted, Day 1, geometric mean", "result": 438, "unit": "ng·h/mL"}, {"measurement": "AUC", "setting": "male, human, in vivo, 120 mg, AUC(0-tau), human plasma, Regimen I: 120 mg TQS-168 SDD QD 7 days, fasted, Day 7, geometric mean", "result": 692, "unit": "ng·h/mL"}, {"measurement": "Cmax", "setting": "male, human, in vivo, 120 mg, Cmax, human plasma, Regimen I: 120 mg TQS-168 SDD QD 7 days, fasted, Day 1", "result": 690, "unit": "nM"}, {"measurement": "Cmax", "setting": "male, human, in vivo, 120 mg, Cmax, human plasma, Regimen I: 120 mg TQS-168 SDD QD 7 days, fasted, Day 1, geometric mean", "result": 172, "unit": "ng/mL"}, {"measurement": "Cmax", "setting": "male, human, in vivo, 120 mg, Cmax, human plasma, Regimen I: 120 mg TQS-168 SDD QD 7 days, fasted, Day 7", "result": 1090, "unit": "nM"}, {"measurement": "Cmax", "setting": "male, human, in vivo, 120 mg, Cmax, human plasma, Regimen I: 120 mg TQS-168 SDD QD 7 days, fasted, Day 7, geometric mean", "result": 273, "unit": "ng/mL"}, {"measurement": "Tmax", "setting": "male, human, in vivo, 120 mg, Tmax, human plasma, Regimen I: 120 mg TQS-168 SDD QD 7 days, fasted, Day 1", "result": 1, "unit": "h"}, {"measurement": "Tmax", "setting": "male, human, in vivo, 120 mg, Tmax, human plasma, Regimen I: 120 mg TQS-168 SDD QD 7 days, fasted, Day 7", "result": 0.75, "unit": "h"}, {"measurement": "AUC", "setting": "male, human, in vivo, 300 mg, AUC(0-tau), Regimen K, 300 mg TQS-168 SDD QD, fed, Day 1, tau = 24 h, geometric mean", "result": 1210, "unit": "ng·h/mL"}, {"measurement": "AUC", "setting": "male, human, in vivo, 300 mg, AUC(0-tau), Regimen K, 300 mg TQS-168 SDD QD, fed, Day 7, tau = 24 h, geometric mean", "result": 2010, "unit": "ng·h/mL"}, {"measurement": "AUC", "setting": "male, human, in vivo, 300 mg, AUC(0-tau), human plasma, Regimen K: 300 mg TQS-168 SDD QD 7 days, fed, Day 1, geometric mean", "result": 1210, "unit": "ng·h/mL"}, {"measurement": "AUC", "setting": "male, human, in vivo, 300 mg, AUC(0-tau), human plasma, Regimen K: 300 mg TQS-168 SDD QD 7 days, fed, Day 7, geometric mean", "result": 2010, "unit": "ng·h/mL"}, {"measurement": "Cmax", "setting": "male, human, in vivo, 300 mg, Cmax, Regimen K, 300 mg TQS-168 SDD QD, fed, Day 1, plasma, geometric mean", "result": 229, "unit": "ng/mL"}, {"measurement": "Cmax", "setting": "male, human, in vivo, 300 mg, Cmax, Regimen K, 300 mg TQS-168 SDD QD, fed, Day 7, plasma, geometric mean", "result": 400, "unit": "ng/mL"}, {"measurement": "Cmax", "setting": "male, human, in vivo, 300 mg, Cmax, human plasma, Regimen K: 300 mg TQS-168 SDD QD 7 days, fed, Day 1", "result": 910, "unit": "nM"}, {"measurement": "Cmax", "setting": "male, human, in vivo, 300 mg, Cmax, human plasma, Regimen K: 300 mg TQS-168 SDD QD 7 days, fed, Day 1, geometric mean", "result": 229, "unit": "ng/mL"}, {"measurement": "Cmax", "setting": "male, human, in vivo, 300 mg, Cmax, human plasma, Regimen K: 300 mg TQS-168 SDD QD 7 days, fed, Day 7", "result": 1600, "unit": "nM"}, {"measurement": "Cmax", "setting": "male, human, in vivo, 300 mg, Cmax, human plasma, Regimen K: 300 mg TQS-168 SDD QD 7 days, fed, Day 7, geometric mean", "result": 400, "unit": "ng/mL"}, {"measurement": "Tmax", "setting": "male, human, in vivo, 300 mg, Tmax (median), Regimen K, 300 mg TQS-168 SDD QD, fed, Day 7, plasma", "result": 4, "unit": "h"}, {"measurement": "Tmax", "setting": "male, human, in vivo, 300 mg, Tmax, human plasma, Regimen K: 300 mg TQS-168 SDD QD 7 days, fed, Day 1", "result": 2, "unit": "h"}, {"measurement": "Tmax", "setting": "male, human, in vivo, 300 mg, Tmax, human plasma, Regimen K: 300 mg TQS-168 SDD QD 7 days, fed, Day 7", "result": 4, "unit": "h"}, {"measurement": "Tmax", "setting": "male, human, in vivo, po, 90 mg, Tmax (median), Regimen J, 90 mg TQS-168 SDD powder for oral suspension QD, fed, Day 1, plasma", "result": 3, "unit": "h"}, {"measurement": "Tmax", "setting": "male, human, in vivo, po, 300 mg, Tmax (median), Regimen K, 300 mg TQS-168 SDD powder for oral suspension QD, fed, Day 1, plasma", "result": 2, "unit": "h"}]}]}
